{
  "source": "paper PMC4005666",
  "about": "(2014)",
  "key": {"[1]": {"tested_on": "Natural E. coli TPP riboswitch (RNA, riboswitch) GGACUCGGGGUGCCCUUCUGCGUGAAGGCUGAGAAAUACCCGUAUCACCUGAUCUGGAUAAUGCCAGCGUAGGGAAGUUC", "test": "native gel electrophoresis (mobility increase)", "settings": "1 mM Mg2+; 25 mM Tris, 192 mM glycine pH 8.3; 100 µM TPP"}, "[2]": {"tested_on": "A2bC (RNA, riboswitch) GGACUCGGGGUGCCCUUCUGCGUGAAGGCUGAGAAAUACCCGUAUCCCCUGAUCUGGAUAAUGCCAGCGUAGGGAAGUUC", "test": "ITC", "settings": "100 mM KCl, 10 mM MgCl2; 40 mM Hepes pH 7.5, 303.15 K"}, "[3]": {"tested_on": "ΔUC (RNA, riboswitch) GGACUCGGGGUGCCCUUCUGCGUGAAGGCUGAGAAAUACCCGUAACCUGAUCUGGAUAAUGCCAGCGUAGGGAAGUUC", "test": "ITC", "settings": "100 mM KCl, 10 mM MgCl2; 40 mM Hepes pH 7.5, 303.15 K"}, "[4]": {"tested_on": "A2bU (RNA, riboswitch) GGACUCGGGGUGCCCUUCUGCGUGAAGGCUGAGAAAUACCCGUAUCUCCUGAUCUGGAUAAUGCCAGCGUAGGGAAGUUC", "test": "ITC", "settings": "100 mM KCl, 10 mM MgCl2; 40 mM Hepes pH 7.5, 303.15 K"}, "[5]": {"tested_on": "A1nC (RNA, riboswitch) GGACUCGGGGUGCCCUUCUGCGUGAAGGCUGAGAAAUACCCGUAUCACCUGAUCUGGAUAAUGCCAGCGUAGGGCAGUUC", "test": "native gel electrophoresis (mobility increase)", "settings": "1 mM Mg2+; 25 mM Tris, 192 mM glycine pH 8.3; 100 µM TPP"}, "[6]": {"tested_on": "A1nU (RNA, riboswitch) GGACUCGGGGUGCCCUUCUGCGUGAAGGCUGAGAAAUACCCGUAUCACCUGAUCUGGAUAAUGCCAGCGUAGGGUAGUUC", "test": "ITC", "settings": "100 mM KCl, 10 mM MgCl2; 40 mM Hepes pH 7.5, 303.15 K"}, "[7]": {"tested_on": "A1nC (RNA, riboswitch) GGACUCGGGGUGCCCUUCUGCGUGAAGGCUGAGAAAUACCCGUAUCACCUGAUCUGGAUAAUGCCAGCGUAGGGCAGUUC", "test": "ITC", "settings": "100 mM KCl, 10 mM MgCl2; 40 mM Hepes pH 7.5, 303.15 K; 150 µM TPP titrated into 15 µM RNA"}, "[8]": {"tested_on": "A1bG (RNA, riboswitch) GGACUCGGGGUGCCCUUCUGCGUGAAGGCUGAGAAAUACCCGUGUCACCUGAUCUGGAUAAUGCCAGCGUAGGGAAGUUC", "test": "ITC", "settings": "100 mM KCl, 10 mM MgCl2; 40 mM Hepes pH 7.5, 303.15 K"}, "[9]": {"tested_on": "Natural E. coli TPP riboswitch (RNA, riboswitch) GGACUCGGGGUGCCCUUCUGCGUGAAGGCUGAGAAAUACCCGUAUCACCUGAUCUGGAUAAUGCCAGCGUAGGGAAGUUC", "test": "ITC", "settings": "100 mM KCl, 10 mM MgCl2; 40 mM Hepes pH 7.5, 303.15 K"}},
  "data": [
    {"smiles": "Cc1ncc(C[n+]2csc(CCOP(=O)(O)OP(=O)(O)O)c2C)c(N)n1", "values": [
      {"measurement": "binding", "setting": "[1]", "value": "yes"},
      {"measurement": "Kd", "setting": "[2]", "value": "0.85 ± 0.11", "unit": "µM"},
      {"measurement": "Kd", "setting": "[3]", "value": "0.28 ± 0.04", "unit": "µM"},
      {"measurement": "Kd", "setting": "[4]", "value": "0.55 ± 0.04", "unit": "µM"},
      {"measurement": "binding", "setting": "[5]", "value": "no"},
      {"measurement": "Kd", "setting": "[6]", "value": "4.07 ± 0.73", "unit": "µM"},
      {"measurement": "binding", "setting": "[7]", "value": "no"},
      {"measurement": "Kd", "setting": "[8]", "value": "2.44 ± 0.23", "unit": "µM"},
      {"measurement": "Kd", "setting": "[9]", "value": "0.23 ± 0.02", "unit": "µM"}
    ]}
  ]
}
